# In patent US20240423992A1, “BIOMARKERS FOR TREATING LIVER DISORDERS WITH THR-B AGONISTS AND RELATED USES” (Madrigal Pharmaceuticals, Inc., priority 2023, published 2024):
# How the values were obtained:
# Format in all cases: in vivo, human
# [1] = test system: adults with nonalcoholic fatty liver disease (NAFLD)/presumed nonalcoholic steatohepatitis (NASH); experiment: 52-week Phase 3 trial (Example 1): hepatic fat by MRI-PDFF
# Protocol: (§1) A 52-week randomized, double-blind, placebo-controlled Phase 3 trial was conducted to evaluate the safety and effect of resmetirom, an oral, once-daily, liver-targeted thyroid hormone receptor-β selective agonist, on multiple biomarkers in adults with nonalcoholic fatty liver disease (NAFLD)/presumed nonalcoholic steatohepatitis (NASH). Patients were randomized to three double-blind arms (100 mg resmetirom, 80 mg resmetirom, or placebo) or one open-label arm (100 mg resmetirom). Common concomitant medications across the 4 arms were antidiabetes drugs (such as glucagon-like peptide-1 receptor agonists (GLP-1 RAs), metformin, pioglitazone, and sodium/glucose cotransporter-2 inhibitors (SGLT2i)) and drugs to manage dyslipidemia (statins).
# [2] = test system: adults with nonalcoholic fatty liver disease (NAFLD)/presumed nonalcoholic steatohepatitis (NASH); experiment: 52-week Phase 3 trial (Example 1): liver volume, open-label arm; details: for Liver volume, mean reduction from baseline: open-label 100 mg resmetirom arm
# Protocol: as §1
# Liver volume was evaluated in the open-label 100 mg resmetirom arm at Week 52. Liver volume was reduced from baseline by a mean of 21% and 23% following 16 and 52 weeks of resmetirom treatment, respectively (FIGS. 3A and 3B). […] Correcting hepatic fat reduction for reduced liver volume led to an average hepatic fat reduction of 61% in the open-label arm.
# [3] = test system: patients with Nonalcoholic Steatohepatitis; experiment: Phase 3 trial in Nonalcoholic Steatohepatitis (Example 2): thyroid hormone levels
# Protocol: A randomized, double-blind, placebo-controlled Phase 3 trial was conducted. Patients were randomly assigned to receive resmetirom 80 mg, resmetirom 100 mg, or placebo administered orally once daily. Screening biopsy results were used as baseline for histologic variables and a second biopsy was performed at Week 52.
# [4] = Resmetirom 80 mg, Week 52, not on thyroxine
# [5] = Resmetirom 80 mg, Week 52, thyroxine-treated
# [6] = Resmetirom 100 mg, Week 52, not on thyroxine
# [7] = Resmetirom 100 mg, Week 52, thyroxine-treated
# [8] = independent of thyroxine replacement
smiles,measurement,setting,value
"CC(C)c1cc(Oc2c(Cl)cc(-n3nc(C#N)c(=O)[nH]c3=O)cc2Cl)n[nH]c1=O [Resmetirom, 2-[3,5-dichloro-4-[(6-oxo-5-propan-2-yl-1H-pyridazin-3-yl)oxy]phenyl]-3,5-dioxo-1,2,4-triazine-6-carbonitrile]","hepatic fat reduction, 80 mg compared with 100 mg","[1]; 80 mg resmetirom, in general",less effective than 100 mg resmetirom
same,"hepatic fat (MRI-PDFF), change from baseline","[1]; Week 52, all key patient subgroups",reduced hepatic fat from baseline
same,hepatic fat reduction by subgroup,[1]; weight gain ≥5% or <120% increase in SHBG,lower hepatic fat reduction
same,hepatic fat reduction by subgroup,[1]; weight loss ≥5% or ≥120% increase from baseline in SHBG,greater reduction in hepatic fat
same,Liver volume in patient subgroups,[2]; all key patient subgroups of the OL arm,reductions in liver volume were observed
same,"Liver volume, mean reduction from baseline",[2]; 16 weeks,21%
same,"Liver volume, mean reduction from baseline",[2]; 52 weeks,23%
same,average hepatic fat reduction corrected for reduced liver volume,[2]; open-label arm,61%
same,"FT3/rT3 CFB, LS Mean Difference from PBO","[3]; Resmetirom 80 mg, Week 52",0.06
same,FT3/rT3 LS Mean CFB (SE),"[3]; Resmetirom 80 mg, Week 52",0.06 (0.004)
same,"FT3 CFB, LS Mean Difference from PBO","[3]; Resmetirom 80 mg, Week 52",0.02 ng/L
same,FT3 LS Mean CFB (SE),"[3]; Resmetirom 80 mg, Week 52",−0.01 (0.030) ng/L
same,"FT4 % CFB, LS Mean Difference from PBO","[3]; Resmetirom 80 mg, Week 52",−16.6%
same,"FT4 CFB, LS Mean Difference from PBO","[3]; Resmetirom 80 mg, Week 52",-0.19 ng/dL
same,FT4 LS Mean % CFB (SE),"[3]; Resmetirom 80 mg, Week 52",−13.9 (0.96) %
same,FT4 LS Mean CFB (SE),"[3]; Resmetirom 80 mg, Week 52",−0.17 (0.011) ng/dL
same,"TBG CFB, LS Mean Difference from PBO","[3]; Resmetirom 80 mg, Week 52",-1.9 mg/L
same,TBG LS Mean CFB (SE),"[3]; Resmetirom 80 mg, Week 52",−0.32 (0.45) mg/L
same,"TSH CFB, LS Mean Difference from PBO","[3]; Resmetirom 80 mg, Week 52",−0.18 mIU/L
same,TSH LS Mean CFB (SE),"[3]; Resmetirom 80 mg, Week 52",−0.28 (0.059) mIU/L
same,"rT3 CFB, LS Mean Difference from PBO","[3]; Resmetirom 80 mg, Week 52",-4.73 ng/dL
same,rT3 LS Mean CFB (SE),"[3]; Resmetirom 80 mg, Week 52",−4.6 (0.31) ng/dL
same,"FT3/rT3 CFB, LS Mean Difference from PBO",[3]; [4],0.06
same,FT3/rT3 LS Mean CFB (SE),[3]; [4],0.06 (0.005)
same,"FT3 CFB, LS Mean Difference from PBO",[3]; [4],0.01 ng/L
same,FT3 LS Mean CFB (SE),[3]; [4],−0.01 (0.032) ng/L
same,"FT4 % CFB, LS Mean Difference from PBO",[3]; [4],−16.3%
same,"FT4 CFB, LS Mean Difference from PBO",[3]; [4],-0.18 ng/dL
same,FT4 LS Mean % CFB (SE),[3]; [4],−13.8 (0.97) %
same,FT4 LS Mean CFB (SE),[3]; [4],−0.16 (0.011) ng/dL
same,"TBG CFB, LS Mean Difference from PBO",[3]; [4],-1.8 mg/L
same,TBG LS Mean CFB (SE),[3]; [4],−0.19 (0.47) mg/L
same,"TSH CFB, LS Mean Difference from PBO",[3]; [4],−0.15 mIU/L
same,TSH LS Mean CFB (SE),[3]; [4],−0.23 (0.056) mIU/L
same,"rT3 CFB, LS Mean Difference from PBO",[3]; [4],-4.5 ng/dL
same,rT3 LS Mean CFB (SE),[3]; [4],−4.5 (0.33) ng/dL
same,"FT3/rT3 CFB, LS Mean Difference from PBO",[3]; [5],0.06
same,FT3/rT3 LS Mean CFB (SE),[3]; [5],0.05 (0.011)
same,"FT3 CFB, LS Mean Difference from PBO",[3]; [5],0.05 ng/L
same,FT3 LS Mean CFB (SE),[3]; [5],0.04 (0.089) ng/L
same,"FT4 % CFB, LS Mean Difference from PBO",[3]; [5],−17.9%
same,"FT4 CFB, LS Mean Difference from PBO",[3]; [5],-0.21 ng/dL
same,FT4 LS Mean % CFB (SE),[3]; [5],−14.0 (3.6) %
same,FT4 LS Mean CFB (SE),[3]; [5],−0.18 (0.041) ng/dL
same,"TBG CFB, LS Mean Difference from PBO",[3]; [5],-2.6 mg/L
same,TBG LS Mean CFB (SE),[3]; [5],−1.1 (1.4) mg/L
same,"TSH CFB, LS Mean Difference from PBO",[3]; [5],−0.41 mIU/L
same,TSH LS Mean CFB (SE),[3]; [5],−0.63 (0.27) mIU/L
same,"rT3 CFB, LS Mean Difference from PBO",[3]; [5],-5.1 ng/dL
same,rT3 LS Mean CFB (SE),[3]; [5],−5.1 (0.94) ng/dL
same,"FT3/rT3 CFB, LS Mean Difference from PBO","[3]; Resmetirom 100 mg, Week 52",0.07
same,FT3/rT3 LS Mean CFB (SE),"[3]; Resmetirom 100 mg, Week 52",0.06 (0.004)
same,"FT3 CFB, LS Mean Difference from PBO","[3]; Resmetirom 100 mg, Week 52",-0.05 ng/L
same,FT3 LS Mean CFB (SE),"[3]; Resmetirom 100 mg, Week 52",−0.08 (0.031) ng/L
same,"FT4 % CFB, LS Mean Difference from PBO","[3]; Resmetirom 100 mg, Week 52",−20.7%
same,"FT4 CFB, LS Mean Difference from PBO","[3]; Resmetirom 100 mg, Week 52",-0.24 ng/dL
same,FT4 LS Mean % CFB (SE),"[3]; Resmetirom 100 mg, Week 52",−18.1 (0.97) %
same,FT4 LS Mean CFB (SE),"[3]; Resmetirom 100 mg, Week 52",−0.22 (0.011) ng/dL
same,"TBG CFB, LS Mean Difference from PBO","[3]; Resmetirom 100 mg, Week 52",-2.2 mg/L
same,TBG LS Mean CFB (SE),"[3]; Resmetirom 100 mg, Week 52",−0.60 (0.45) mg/L
same,"TSH CFB, LS Mean Difference from PBO","[3]; Resmetirom 100 mg, Week 52",−0.10 mIU/L
same,TSH LS Mean CFB (SE),"[3]; Resmetirom 100 mg, Week 52",−0.20 (0.060) mIU/L
same,"rT3 CFB, LS Mean Difference from PBO","[3]; Resmetirom 100 mg, Week 52",-5.2 ng/dL
same,rT3 LS Mean CFB (SE),"[3]; Resmetirom 100 mg, Week 52",−5.1 (0.32) ng/dL
same,"FT3/rT3 CFB, LS Mean Difference from PBO",[3]; [6],0.07
same,FT3/rT3 LS Mean CFB (SE),[3]; [6],0.06 (0.005)
same,"FT3 CFB, LS Mean Difference from PBO",[3]; [6],-0.06 ng/L
same,FT3 LS Mean CFB (SE),[3]; [6],−0.08 (0.033) ng/L
same,"FT4 % CFB, LS Mean Difference from PBO",[3]; [6],−20.0%
same,"FT4 CFB, LS Mean Difference from PBO",[3]; [6],-0.23 ng/dL
same,FT4 LS Mean % CFB (SE),[3]; [6],−17.6 (1.0) %
same,FT4 LS Mean CFB (SE),[3]; [6],−0.21 (0.011) ng/dL
same,"TBG CFB, LS Mean Difference from PBO",[3]; [6],-1.8 mg/L
same,TBG LS Mean CFB (SE),[3]; [6],−0.21 (0.49) mg/L
same,"TSH CFB, LS Mean Difference from PBO",[3]; [6],−0.12 mIU/L
same,TSH LS Mean CFB (SE),[3]; [6],−0.20 (0.058) mIU/L
same,"rT3 CFB, LS Mean Difference from PBO",[3]; [6],-5.1 ng/dL
same,rT3 LS Mean CFB (SE),[3]; [6],−4.9 (0.34) ng/dL
same,"FT3/rT3 CFB, LS Mean Difference from PBO",[3]; [7],0.06
same,FT3/rT3 LS Mean CFB (SE),[3]; [7],0.06 (0.010)
same,"FT3 CFB, LS Mean Difference from PBO",[3]; [7],-0.01 ng/L
same,FT3 LS Mean CFB (SE),[3]; [7],−0.03 (0.081) ng/L
same,"FT4 % CFB, LS Mean Difference from PBO",[3]; [7],−24.4%
same,"FT4 CFB, LS Mean Difference from PBO",[3]; [7],-0.29 ng/dL
same,FT4 LS Mean % CFB (SE),[3]; [7],−20.6 (3.3) %
same,FT4 LS Mean CFB (SE),[3]; [7],−0.26 (0.037) ng/dL
same,"TBG CFB, LS Mean Difference from PBO",[3]; [7],-4.6 mg/L
same,TBG LS Mean CFB (SE),[3]; [7],−3.1 (1.3) mg/L
same,"TSH CFB, LS Mean Difference from PBO",[3]; [7],0.09 mIU/L
same,TSH LS Mean CFB (SE),[3]; [7],−0.13 (0.25) mIU/L
same,"rT3 CFB, LS Mean Difference from PBO",[3]; [7],-6.3 ng/dL
same,rT3 LS Mean CFB (SE),[3]; [7],−6.3 (0.85) ng/dL
same,Thyroid hormone indices,[3]; in vivo,not clinically impacted
same,effect on free triiodothyronine (FT3),[3]; [8],no effect
same,effect on thyroid-stimulating hormone (TSH),[3]; [8],no effect
same,reduction of free thyroxine (FT4),[3]; resmetirom groups,16-19%
